In patent publication US5100895A, “Heterocyclic compounds and their preparation and use” (Novo Nordisk A/S, priority 1989, dated 1992):

Test system: benzodiazepine receptors
Assay: in vivo displacement of 3H-flunitrazepam specific binding to benzodiazepine receptors in a living brain
Conditions: dose which causes specific binding of 3H-flunitrazepam to benzodiazepine receptors in a living brain to be reduced to 50% of the control value
From the text: The pharmaceutical properties of the compounds of the invention can be illustrated by determining their capability for displacing radioactive labelled flunitrazepam from benzodiazepine receptors.
The displacement activity of the compounds of the invention may be found by determining the ED50 value. The ED50 value represents the dose (mg/kg) of a test substance which causes the specific binding of ^3 H-flunitrazepam to benzodiazepine receptors in a living brain to be reduced to 50% of the control value.
Such an in vivo test is carried out as described in U.S. Pat. No. 4,774,245.

Structure (SMILES) | ED50 [mg/kg]
FC(F)(F)c1cccc2c1C1=NCCN1c1c(-c3noc(C4CC4)n3)ncn1-2 [Compound 12, 5-(5-Cyclopropyl-1,2,4-oxadiazol-3-yl)-2,3-dihydro-12-trifluoromethyldiimidazo[1,5-a:1',2'-c]quinazoline] | 0.08
FC(F)(F)c1cccc2c1C1=NCCN1c1c(-c3nc(C4CC4)no3)ncn1-2 [Compound 19, 5-(3-Cyclopropyl-1,2,4-oxadiazol-5-yl)-2,3-dihydro-12-trifluoromethyldiimidazo[1,5-a:1',2'-c]quinazoline] | 0.08
Clc1cccc2c1C1=NCCN1c1c(-c3noc(C4CC4)n3)ncn1-2 [Compound 6, 12-Chloro-5-(5-cyclopropyl-1,2,4-oxadiazol-3-yl)-2,3-dihydrodiimidazo[1,5-a:1',2'-c]quinazoline] | 0.23
Brc1cccc2c1C1=NCCN1c1c(-c3noc(C4CC4)n3)ncn1-2 [Compound 7, 12-Bromo-5-(5-cyclopropyl-1,2,4-oxadiazol-3-yl)-2,3-dihydroiimidazo[1,5-a:1',2'-c]quinazoline] | 0.92
Fc1ccc2c(c1)C1=NCCN1c1c(-c3noc(C4CC4)n3)ncn1-2 [Compound 21, 5-(5-Cyclopropyl-1,2,4-oxadiazol-3-yl)-11-fluoro-2,3-dihydrodiimidazo[1,5-a:1',2'-c]quinazoline] | 0.26
Brc1cccc2c1C1=NCCN1c1c(-c3nc(C4CC4)no3)ncn1-2 [Compound 8, 12-Bromo-5-(3-cyclopropyl-1,2,4-oxadiazol-5-yl)-2,3-dihydrodiimidazo[1,5-a:1',2'-c]quinazoline] | 1.7
c1ccc2c(c1)C1=NCCN1c1c(-c3noc(C4CC4)n3)ncn1-2 [Compound 1, 5-(5-cyclopropyl-1,2,4-oxadiazol-3-yl)-2,3-dihydrodiimidazol[1,5-a:1',2'-c]quinazoline] | 0.47
FC(F)(F)c1cccc2c1c1nccn1c1c(-c3noc(C4CC4)n3)ncn21 [Compound 28, 5-(5-Cyclopropyl-1,2,4-oxadiazol-3-yl)-12-trifluoromethyldiimidazo[1,5-a:1',2'-c]quinazoline] | 0.12
